From ChEMBL document CHEMBL1133362, “Discovery and evaluation of potent, cysteine-based alpha4beta1 integrin antagonists” (Bioorg Med Chem Lett, 2000) come the findings set out here.

Broadly, the IC50 is the midpoint of a concentration-inhibition curve. Low readings indicate greater potency, high ones weaker potency.

In the test the target is Integrin alpha-4/beta-1 (Homo sapiens, UniProt P05556+P13612). Put plainly: Inhibition of VCAM (vascular cell adhesion molecule) adhesion to alpha4-beta1 integrin of leukocyte cells. Type of test: functional, cell-based.
Chain of Integrin alpha-4/beta-1 (P05556 whole entry): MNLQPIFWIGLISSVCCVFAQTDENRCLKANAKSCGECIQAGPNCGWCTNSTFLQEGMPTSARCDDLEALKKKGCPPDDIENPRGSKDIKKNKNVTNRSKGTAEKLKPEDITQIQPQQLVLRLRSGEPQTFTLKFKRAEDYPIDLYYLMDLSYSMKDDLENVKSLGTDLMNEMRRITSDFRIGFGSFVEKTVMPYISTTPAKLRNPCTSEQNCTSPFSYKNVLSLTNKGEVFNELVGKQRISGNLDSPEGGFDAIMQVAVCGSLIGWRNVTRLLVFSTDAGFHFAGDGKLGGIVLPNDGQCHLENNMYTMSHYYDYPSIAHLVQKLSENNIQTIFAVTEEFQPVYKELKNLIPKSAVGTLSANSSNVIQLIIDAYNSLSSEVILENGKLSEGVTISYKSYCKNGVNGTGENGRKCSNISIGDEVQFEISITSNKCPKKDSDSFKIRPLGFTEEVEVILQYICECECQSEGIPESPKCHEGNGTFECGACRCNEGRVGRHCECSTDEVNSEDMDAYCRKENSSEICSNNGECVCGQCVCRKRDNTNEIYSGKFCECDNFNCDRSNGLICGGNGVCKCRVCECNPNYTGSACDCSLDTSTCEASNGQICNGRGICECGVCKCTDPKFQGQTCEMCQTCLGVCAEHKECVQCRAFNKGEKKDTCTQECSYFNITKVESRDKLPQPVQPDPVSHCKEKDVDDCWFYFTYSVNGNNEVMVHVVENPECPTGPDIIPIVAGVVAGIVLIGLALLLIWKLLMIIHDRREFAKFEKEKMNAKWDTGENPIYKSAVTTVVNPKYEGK
Chain of Integrin alpha-4/beta-1 (P13612 whole entry): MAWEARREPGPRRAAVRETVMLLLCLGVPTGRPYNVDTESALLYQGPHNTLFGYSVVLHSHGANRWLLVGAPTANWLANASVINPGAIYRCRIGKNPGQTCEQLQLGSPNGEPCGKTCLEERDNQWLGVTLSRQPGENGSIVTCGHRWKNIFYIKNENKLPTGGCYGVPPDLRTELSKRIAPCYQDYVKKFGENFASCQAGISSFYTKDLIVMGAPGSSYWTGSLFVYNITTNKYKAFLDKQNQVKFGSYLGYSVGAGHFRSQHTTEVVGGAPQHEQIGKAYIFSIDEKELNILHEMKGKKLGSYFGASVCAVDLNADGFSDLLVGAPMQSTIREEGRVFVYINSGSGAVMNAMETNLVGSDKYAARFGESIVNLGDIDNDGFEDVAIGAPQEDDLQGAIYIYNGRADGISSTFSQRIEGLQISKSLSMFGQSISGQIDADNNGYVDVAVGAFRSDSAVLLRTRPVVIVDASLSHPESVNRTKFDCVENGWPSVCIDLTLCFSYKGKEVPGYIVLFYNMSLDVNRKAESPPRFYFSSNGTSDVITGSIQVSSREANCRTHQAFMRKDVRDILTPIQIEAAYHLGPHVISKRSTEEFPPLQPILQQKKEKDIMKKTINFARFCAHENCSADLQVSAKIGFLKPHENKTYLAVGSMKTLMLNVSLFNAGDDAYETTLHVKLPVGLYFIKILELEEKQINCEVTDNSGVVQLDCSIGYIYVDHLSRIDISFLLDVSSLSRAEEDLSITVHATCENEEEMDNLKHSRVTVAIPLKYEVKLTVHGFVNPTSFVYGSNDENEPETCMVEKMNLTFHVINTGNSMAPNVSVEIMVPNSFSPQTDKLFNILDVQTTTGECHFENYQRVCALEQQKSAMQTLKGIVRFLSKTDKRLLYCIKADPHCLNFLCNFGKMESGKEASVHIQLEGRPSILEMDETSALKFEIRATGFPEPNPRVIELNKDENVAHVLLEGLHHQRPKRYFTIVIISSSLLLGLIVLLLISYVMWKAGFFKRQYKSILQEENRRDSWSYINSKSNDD
`O=C(O)C[C@H]1CN2CCC[C@H]2C(=O)N[C@H](C(=O)O)CSSC[C@H](NC(=O)C23CC4CC(CC(C4)C2)C3)C(=O)N1` registered an IC50 of 0.17 µM. With `O=C(O)[C@H](CSSCCNC(=O)C12CC3CC(CC(C3)C1)C2)NC(=O)C12CC3CC(CC(C3)C1)C2`, the IC50 was found to be 4.1 µM.

Consider `COC(=O)[C@H](CSSC[C@H](NC(=O)[C@@H]1CCCN1C(C)=O)C(=O)O)NC(=O)C12CC3CC(CC(C3)C1)C2`, for which the IC50 came to 25.2 µM.

Take `CC(=O)N1CCCC[C@H]1C(=O)N[C@@H](CSSCCNC(=O)C12CC3CC(CC(C3)C1)C2)C(=O)O`: the midpoint of inhibition, the IC50, lay at 0.425 µM. `C[C@H]1CN2CCC[C@H]2C(=O)N[C@H](C(=O)O)CSSC[C@H](NC(=O)C23CC4CC(CC(C4)C2)C3)C(=O)N1` registered an IC50 of 0.33 µM. For `COC(=O)[C@H](CSSC[C@H](NC(=O)C12CC3CC(CC(C3)C1)C2)C(=O)OC)NC(=O)C12CC3CC(CC(C3)C1)C2`, the IC50 is more than 800 µM. Consider `COC(=O)[C@H](CSSC[C@H](NC(=O)C12CC3CC(CC(C3)C1)C2)C(=O)O)NC(=O)C12CC3CC(CC(C3)C1)C2`, for which the IC50 came out at 5.1 µM. Take `CC(=O)N1CCC[C@H]1C(=O)N[C@@H](CSSCCNC(=O)C12CC3CC(CC(C3)C1)C2)C(=O)O`: the IC50 stood at 2.34 µM.

In the case of `O=C(O)[C@H](CSSC[C@H](NC(=O)C12CC3CC(CC(C3)C1)C2)C(=O)O)NC(=O)C12CC3CC(CC(C3)C1)C2`, the IC50 turned out to be 7.3 µM.

Compound `CC(=O)N1CSC[C@H]1C(=O)N[C@@H](CSSCCNC(=O)C12CC3CC(CC(C3)C1)C2)C(=O)O` yielded an IC50 of 0.28 µM. As for `O=C(O)C[C@H]1CN2CCCC[C@H]2C(=O)N[C@H](C(=O)O)CSSC[C@H](NC(=O)C23CC4CC(CC(C4)C2)C3)C(=O)N1`, half-maximal inhibition (IC50) was put at 0.012 µM. Compound `O=C(O)C[C@H]1CN2CSC[C@H]2C(=O)N[C@H](C(=O)O)CSSC[C@H](NC(=O)C23CC4CC(CC(C4)C2)C3)C(=O)N1` registered an IC50 of 0.047 µM.
